Reference: patent US11415571B2, “Large scale organoid analysis” (Tempus Labs, Inc., priority 2019, dated 2022)
Where a name gives a salt, the structure may show the parent alone.

Key:
[1] = system: head and neck cancer tumor organoid line; test: high throughput tumor organoid drug screen, per-organoid viability histogram; conditions: for viability at 10 µM: Homo sapiens, read-out: mean viability for all organoids in the plot; for organoids of the line that are resistant to the drug / organoids with 0% viability (susceptible to the drug) / organoids with 100% viability (resistant to the drug): caspase 3/7 readout, 10,000 nM dose
Experimental: (§1) TOs were dissociated as described above and resuspended in a 30:70% mix of GFR Matrigel:growth media at a concentration of 100 cells/μl. The solution was added to 384-well assay plates (Corning) at 20 μl per well for a final concentration of 2,000 cells per well. Assay plates were covered with a Breathe-Easy sealing membrane (Sigma Aldrich) to prevent evaporation. TOs were grown for 72 hours before drug addition. Drugs were prepared in growth media with 2.5 μM Caspase-3/7 Green Apoptosis Assay Reagent (Essen Bioscience). Serial dilutions of each molecule were prepared in 384-well polystyrene plates (Nunc). Diluted drug was added to the assay plate using an Integra Viaflo pipette (Integra) mounted on an Integra Assist Plus Pipetting Robot (Integra). Assay plates were again covered with a Breathe-Easy sealing membrane and TOs were exposed to drugs for another 72 hours before imaging.
(§2) Prior to imaging, TOs were incubated with 4 μM Hoechst 33342 (Fisher Scientific) and 300 nM TO-PRO-3 Iodide (642/661) (Invitrogen) for 1.5-2 hours. Assay plates were imaged using an ImageXpress Micro Confocal (Molecular Devices) at 10× magnification so that ˜100-200 TOs were imaged per well. Images were acquired as 4×15 μm Z-stacks and the 2D projections were analyzed to assess cell viability. Confocal images were analyzed using the MetaXpress software (Molecular Devices) custom module editor feature to design an analysis module that identified TOs by clusters of Hoechst 33342 staining, individual cells by Hoechst 33342 staining, and dead/dying cells by either TO-PRO-3 or Caspase-3/7 staining. The result of this analysis module is a spreadsheet detailing the number of live and dead cells for every individual organoid.
(§3) The percentage of viable cells per organoid was calculated based on the image analysis described above. Organoids with fewer than three cells and larger than the top one percent by size were excluded from analysis. The mean viability for all organoids at a given drug concentration was used in dose-response curves to calculate AUC. AUC was calculated using the computeAUC function using settings for “actual” AUC of the R Package PharmacoGx (v1.17.1). Heatmaps of AUC values were generated using the Pheatmap package (v1.0.12) in R. Scatterplots of AUC values were generated using the ggplot2 package (v3.3.0) in R.
(§4) In this example, data for each therapy is presented as a histogram. […] Viability was determined by the systems and methods disclosed above.
(§5) Each tumor organoid line in these examples was cultured individually in wells of a tissue culture plate, as described above.
In this example, tissue culture wells containing a head and neck cancer tumor organoid line were each exposed to one of the therapies listed above.

[2] = system: first lung cancer tumor organoid line; test: as above; conditions: 10,000 nM dose
Experimental: as §1, §2, §3, §4, §5
In this example, tissue culture wells containing a first lung cancer tumor organoid line were each exposed to one of the therapies listed above.

[3] = system: first endometrial cancer tumor organoid line; test: as above
Experimental: as §1, §2, §3, §4, §5
In this example, tissue culture wells containing a first endometrial cancer tumor organoid line were each exposed to one of the therapies listed above.

[4] = system: gastric cancer tumor organoid line; test: cells
Experimental: as §1, §2, §3, §4, §5
In this example, tissue culture wells containing a gastric cancer tumor organoid line were each exposed to one of the therapies listed above.

[5] = system: second endometrial cancer tumor organoid line; test: high throughput tumor organoid drug screen, per-organoid viability histogram; conditions: for viability at 10 µM: Homo sapiens, read-out: mean viability for all organoids in the plot; for organoids of the line that are resistant to the drug / organoids with 0% viability (susceptible to the drug) / organoids with 100% viability (resistant to the drug): caspase 3/7 readout, 10,000 nM dose
Experimental: as §1, §2, §3, §4, §5
In this example, tissue culture wells containing a second endometrial cancer tumor organoid line were each exposed to one of the therapies listed above.

[6] = system: second lung cancer tumor organoid line; test: as above; conditions: caspase 3/7 readout; 10,000 nM dose
Experimental: as §1, §2, §3, §4, §5
In this example, tissue culture wells containing a second lung cancer tumor organoid line were each exposed to one of the therapies listed above.

[7] = system: colorectal cancer tumor organoid line; test: as above; assay type: cell-based, human; conditions: caspase 3/7 readout, 10,000 nM dose
Experimental: as §1, §2, §3, §4, §5
In this example, tissue culture wells containing a colorectal cancer tumor organoid line were each exposed to one of the therapies listed above.

[8] = caspase 3/7 readout, 10,000 nM dose
[9] = Homo sapiens, read-out: mean viability for all organoids in the plot

**Q.** With `CO[C@@H](C)Cn1c(=O)n(C)c2cnc3ccc(-c4cncc(C(C)(C)O)c4)cc3c21` [LY3023414] as the molecule, how does the viability at 10 µM [1] read?
**A.** Its viability at 10 µM is ~15%.

**Q.** And the “organoids of the line that are resistant to the drug” value [1]?
**A.** Its value is “general absence”.

**Q.** What about the “organoids with 0% viability (susceptible to the drug)” value (“organoids with 0% viability” below) [1] of the same molecule?
**A.** Its value is “Approximately 80 organoids”.

**Q.** What about the “organoids with 100% viability (resistant to the drug)” value (“organoids with 100% viability” below) [1] of the same molecule?
**A.** Its value is “Approximately 5 organoids”.

**Q.** Which viability at 10 µM ([2]; Homo sapiens, read-out: mean viability for all organoids in the plot, caspase 3/7 readout) does the source give for `NC(=O)c1cccc2cn(-c3ccc([C@@H]4CCCNC4)cc3)nc12` [Niraparib] here?
**A.** Its viability at 10 µM is ~25%.

**Q.** What about the “organoids of the line that are resistant to the drug” value ([2]; caspase 3/7 readout) of the same molecule?
**A.** Its value is “presence of a small proportion”.

**Q.** What about the “organoids with 0% viability” value ([2]; caspase 3/7 readout) of the same molecule?
**A.** Its value is “Approximately 80 organoids”.

**Q.** And the “organoids with 100% viability” value ([2]; caspase 3/7 readout)?
**A.** The value was “Approximately 20 organoids”.

**Q.** Which “mean viability for all organoids in the plot” value (“mean viability” below) [3, 8] does the source give for `O=C1[O][Pt]2([NH][C@@H]3CCCC[C@H]3[NH]2)[O]C1=O` [Oxaliplatin] here?
**A.** The value was “approximately 40%”.

**Q.** What about the “organoids of the line that are resistant to the drug” value [3, 8] of the same molecule?
**A.** Its value is “presence of organoids”.

**Q.** What about the “organoids with 0% viability” value [3, 8] of the same molecule?
**A.** The value was “Approximately 20 organoids”.

**Q.** What about the “organoids with 100% viability” value [3, 8] of the same molecule?
**A.** The value was “Approximately 18 organoids”.

**Q.** Which results are given for `CC(=O)O[C@H]1C(=O)[C@@]2(C)[C@H]([C@H](OC(=O)c3ccccc3)[C@]3(O)C[C@H](OC(=O)[C@H](O)[C@@H](NC(=O)c4ccccc4)c4ccccc4)C(C)=C1C3(C)C)[C@]1(OC(C)=O)CO[C@@H]1C[C@@H]2O` [Paclitaxel]?
**A.** viability at 10 µM [1]: ~40%; organoids of the line that are resistant to the drug [1]: presence of a small proportion; organoids with 0% viability (susceptible to the drug) [1]: Approximately 65 organoids; organoids with 100% viability (resistant to the drug) [1]: Approximately 35 organoids

**Q.** `CCCCc1nc2cc(/C=C/C(=O)NO)ccc2n1CCN(CC)CC` [Pracinostat] was tested. Which viability at 10 µM [4, 9] did it give?
**A.** The viability at 10 µM was ~20%.

**Q.** What about the “organoids of the line that are resistant to the drug” value [4, 8] of the same molecule?
**A.** The value was “general absence”.

**Q.** What about the “organoids with 0% viability” value [4, 8] of the same molecule?
**A.** Its value is “Approximately 120 organoids”.

**Q.** What about the “organoids with 100% viability” value [4, 8] of the same molecule?
**A.** Its value is “Approximately 10 organoids”.

**Q.** Which results are given for `COc1cccc(OCCCN)c1-c1cc(Nc2cnc(C#N)cn2)n[nH]1` [Prexasertib, Prexasertib HCl]?
**A.** viability at 10 µM [5]: ~40%; organoids of the line that are resistant to the drug [5]: presence of a small proportion; organoids with 0% viability (susceptible to the drug) [5]: Approximately 80 organoids; organoids with 100% viability (resistant to the drug) [5]: Approximately 35 organoids

**Q.** Which “mean viability” value ([2]; caspase 3/7 readout) does the source give for `CCc1c2c(nc3ccc(O)cc13)-c1cc3c(c(=O)n1C2)COC(=O)[C@]3(O)CC` [SN-38] here?
**A.** The value was “approximately 45%”.

**Q.** And the “organoids of the line that are resistant to the drug” value ([2]; caspase 3/7 readout)?
**A.** Its value is “presence of organoids”.

**Q.** And the “organoids with 0% viability” value ([2]; caspase 3/7 readout)?
**A.** Its value is “Approximately 20 organoids”.

**Q.** What about the “organoids with 100% viability” value ([2]; caspase 3/7 readout) of the same molecule?
**A.** The value was “Approximately 20 organoids”.

**Q.** What about the “mean viability” value [6] of the same molecule?
**A.** The value was “approximately 20%”.

**Q.** What about the “organoids of the line that are resistant to the drug” value [6] of the same molecule?
**A.** The value was “general absence”.

**Q.** What about the “organoids with 0% viability” value [6] of the same molecule?
**A.** The value was “Approximately 100 organoids”.

**Q.** And the “organoids with 100% viability” value [6]?
**A.** The value was “Approximately 5 organoids”.

**Q.** Which viability at 10 µM [5] does the source give for `O=C(O)/C=C/c1ccc(-c2ccc(O)c(C34CC5CC(CC(C5)C3)C4)c2)cc1` [ST-1926, Adarotene] here?
**A.** Its viability at 10 µM is ~40%.

**Q.** And the “organoids of the line that are resistant to the drug” value [5]?
**A.** Its value is “presence of a small proportion”.

**Q.** What about the “organoids with 0% viability” value [5] of the same molecule?
**A.** Its value is “Approximately 65 organoids”.

**Q.** And the “organoids with 100% viability” value [5]?
**A.** The value was “Approximately 40 organoids”.

**Q.** And the viability at 10 µM [3, 9]?
**A.** The viability at 10 µM was ~30%.

**Q.** What about the “organoids of the line that are resistant to the drug” value [3, 8] of the same molecule?
**A.** Its value is “general absence”.

**Q.** What about the “organoids with 0% viability” value [3, 8] of the same molecule?
**A.** The value was “Approximately 45 organoids”.

**Q.** And the “organoids with 100% viability” value [3, 8]?
**A.** Its value is “Approximately 10 organoids”.

**Q.** Which results are given for `CC(=O)Nc1cccc(-n2c(=O)n(C3CC3)c(=O)c3c(Nc4ccc(I)cc4F)n(C)c(=O)c(C)c32)c1` [Trametinib]?
**A.** viability at 10 µM [7, 9]: ~25%; organoids with 0% viability (susceptible to the drug) [7]: Approximately 50 organoids; organoids with 100% viability (resistant to the drug) [7]: Approximately 10 organoids
